Laboratory results published in ChEMBL document CHEMBL1124217, “2,4-Diamino-5-benzylpyrimidines and analogues as antibacterial agents. 9. Lipophilic trimethoprim analogues as antigonococcal agents” (J Med Chem, 1988).
Values after ≈ are worked out from the molar mass of the structure shown.

Legend:
Rattus norvegicus [1] = test: Conc in intestine of male rat 0.25 hr after administration of dose; format: functional, organism-based
Rattus norvegicus [2] = test: Conc in kidney of male rat 2 hr after administration of dose; format: functional, organism-based
Rattus norvegicus [3] = test: Conc in kidney of male rat 3h after administration of dose; format: functional, organism-based
Rattus norvegicus [4] = test: Conc in kidney of male rat 1 hr after administration of dose; format: functional, organism-based
Rattus norvegicus [5] = test: Conc in muscle of male rat 24 hr after administration of dose; format: functional, organism-based; conditions: Muscle tissue
Rattus norvegicus [6] = test: Conc in serum of female rat 0.75h after administration of dose; format: functional, organism-based
Rattus norvegicus [7] = test: Conc in serum of male rat 3h after administration of dose; format: functional, organism-based
Rattus norvegicus [8] = test: Conc in liver of male rat 1.5h after administration of dose; format: functional, organism-based
Rattus norvegicus [9] = test: Conc in stomach of male rat 1 hr after administration of dose; format: functional, organism-based
Rattus norvegicus [10] = test: Conc in muscle of male rat 0.25 hr after administration of dose; format: functional, organism-based; conditions: Muscle tissue
Rattus norvegicus [11] = test: Conc in intestine of male rat 1 hr after administration of dose; format: functional, organism-based
Rattus norvegicus [12] = test: Conc in intestine of male rat 10h after administration of dose; format: functional, organism-based
Rattus norvegicus [13] = test: Conc in ovary of female rat 10h after administration of dose; format: functional, organism-based; conditions: Female gonad
Rattus norvegicus [14] = test: Conc in muscle of male rat 1 hr after administration of dose; format: functional, organism-based; conditions: Muscle tissue
Rattus norvegicus [15] = test: Conc in brain of male rat 0.25 hr after administration of dose; format: functional, organism-based
Staphylococcus aureus = test: Inhibition of growth of Staphylococcus aureus (CN491) measured as MIC compound/MIC Trimethoprim; format: functional
Rattus norvegicus [16] = test: Conc in testes of male rat 6 hr after administration of dose; format: functional, organism-based; conditions: Testis
Neisseria gonorrhoeae = test: Inhibition of growth of Neisseria gonorrhoeae; format: functional
Rattus norvegicus [17] = test: Conc in lung of male rat 10h after administration of dose; format: functional, organism-based
Rattus norvegicus [18] = test: Conc in stomach of male rat 0.50 hr after administration of dose; format: functional, organism-based
Rattus norvegicus [19] = test: Conc in brain of male rat 2 hr after administration of dose; format: functional, organism-based
Rattus norvegicus [20] = test: Conc in serum of female rat 6 hr after administration of dose; format: functional, organism-based
Rattus norvegicus [21] = test: Conc in liver of male rat 6 hr after administration of dose; format: functional, organism-based
Rattus norvegicus [22] = test: Conc in serum of male rat 24 hr after administration of dose; format: functional, organism-based
Rattus norvegicus [23] = test: Conc in brain of male rat 1.5h after administration of dose; format: functional, organism-based
Rattus norvegicus [24] = test: Conc in brain of male rat 10h after administration of dose; format: functional, organism-based
Rattus norvegicus [25] = test: Conc in ovary of female rat 1 hr after administration of dose; format: functional, organism-based; conditions: Female gonad
Rattus norvegicus [26] = test: Conc in kidney of male rat after 0.75h administration of dose; format: functional, organism-based
Rattus norvegicus [27] = test: Conc in testes of male rat 1.5h after administration of dose; format: functional, organism-based; conditions: Testis
Rattus norvegicus [28] = test: Conc in ovary of female rat 0.75h after administration of dose; format: functional, organism-based; conditions: Female gonad
Rattus norvegicus [29] = test: Conc in muscle of male rat 1.5h after administration of dose; format: functional, organism-based; conditions: Muscle tissue
Rattus norvegicus [30] = test: Conc in muscle of male rat 0.50 hr after administration of dose; format: functional, organism-based; conditions: Muscle tissue
Rattus norvegicus [31] = test: Conc in serum of female rat 1 hr after administration of dose; format: functional, organism-based
Rattus norvegicus [32] = test: Conc in lung of male rat after 0.25 hr administration of dose; format: functional, organism-based
Rattus norvegicus [33] = test: Conc in liver of male rat 3h after administration of dose; format: functional, organism-based
Klebsiella pneumoniae = test: Inhibition of growth of Klebsiella pneumoniae (CN3632) measured as MIC compound/MIC Trimethoprim; format: functional
Rattus norvegicus [34] = test: Conc in stomach of male rat 2 hr after administration of dose; format: functional, organism-based

SMILES: CC(C)c1cc(Cc2cnc(N)nc2N)cc(C(C)C)c1O
- Concentration (Rattus norvegicus [1]): 158 µg/g
- Concentration (Rattus norvegicus [2]): 4.08 µg/g
- Concentration (Rattus norvegicus [3]): 4.11 µg/g
- Concentration (Rattus norvegicus [4]): 7.78 µg/g
- Concentration (Rattus norvegicus [5]): 0.04 µg/g
- Concentration (Rattus norvegicus [6]): 1.44 µg/g
- Concentration (Rattus norvegicus [7]): 0.47 µg/g
- Concentration (Rattus norvegicus [8]): 13.5 µg/g
- Concentration (Rattus norvegicus [9]): 47 µg/g
- Concentration (Rattus norvegicus [10]): 0.44 µg/g
- Concentration (Rattus norvegicus [11]): 26 µg/g
- Concentration (Rattus norvegicus [12]): 2.29 µg/g
- Concentration (Rattus norvegicus [13]): 0.23 µg/g
- Concentration (Rattus norvegicus [14]): 2.36 µg/g
- Concentration (Rattus norvegicus [15]): 0.13 µg/g
- MIC ratio (Staphylococcus aureus): 10
- Concentration (Rattus norvegicus [16]): 0.41 µg/g
- MIC (Neisseria gonorrhoeae): 9.2 µM (≈ 2.76 µg/mL)
- Concentration (Rattus norvegicus [17]): 0.4 µg/g
- Concentration (Rattus norvegicus [18]): 304 µg/g
- Concentration (Rattus norvegicus [19]): 0.43 µg/g
- Concentration (Rattus norvegicus [20]): 0.34 µg/g
- Concentration (Rattus norvegicus [21]): 5.14 µg/g
- Concentration (Rattus norvegicus [22]): 0.08 µg/g
- Concentration (Rattus norvegicus [23]): 0.65 µg/g
- Concentration (Rattus norvegicus [24]): 0.04 µg/g
- Concentration (Rattus norvegicus [25]): 3.33 µg/g
- Concentration (Rattus norvegicus [26]): 10.3 µg/g
- Concentration (Rattus norvegicus [27]): 1.52 µg/g
- Concentration (Rattus norvegicus [28]): 4.48 µg/g
- Concentration (Rattus norvegicus [29]): 1.84 µg/g
- Concentration (Rattus norvegicus [30]): 1.45 µg/g
- Concentration (Rattus norvegicus [31]): 1.09 µg/g
- Concentration (Rattus norvegicus [32]): 2.52 µg/g
- Concentration (Rattus norvegicus [33]): 9.56 µg/g
- MIC ratio (Klebsiella pneumoniae): 300
- Concentration (Rattus norvegicus [34]): 46.1 µg/g
